The source made the active and inactive calls. The calls are words filed in the database; no cut-off is given here.
Legend:
[1] = test system: MDA-MB-231; experiment: Induction of cell cycle arrest in human MDA-MB-231 cells assessed as accumulation of cells at G1 phase at 20 uM measured after 24 hrs by PI staining based cytometry analysis (reference value: 68.55%); assay type: functional
[2] = Toxicity in BALB/c mouse xenografted with human MDA-MB-231 cells assessed as morphological changes in heart at 20 to 80 mg/kg, ip administered once daily for 16 days by H and E staining based analysis; assay type: organism-based; details: in vivo, 384 h, dose 20-80 mg/kg, time 16 day
[3] = test system: MDA-MB-231; experiment: Inhibition of cell migration in human MDA-MB-231 cells assessed as downregulation of MMP-2 level by measuring fluorescence intensity at 10 uM incubated for 24 hrs by confocal microscopic analysis; assay type: functional, cell-based
[4] = test system: MDA-MB-231; experiment: Antiproliferative activity against human MDA-MB-231 cells transfected with wild type PARP1 and CDK12 M816A mutant incubated for 24 hrs by MTT assay; assay type: functional, cell-based
[5] = test system: MDA-MB-468; experiment: Antiproliferative activity against human MDA-MB-468 cells assessed as inhibition of cell growth incubated for 24 hrs by MTT assay; assay type: functional, cell-based; details: MDA-MB-468, 24 h
[6] = Metabolic stability in human liver microsome assessed as half life in presence of NADPH incubated upto 60 mins by LC-MS/MS analysis; assay type: ADME; details: liver microsomes
[7] = AUC (0 to t) in Sprague-Dawley rat at 1 mg/kg, iv measured upto 24 hrs by LC-MS/MS analysis; assay type: ADME, organism-based; details: in vivo
[8] = Volume of distribution at steady state in Sprague-Dawley rat at 1 mg/kg, iv measured upto 24 hrs by LC-MS/MS analysis; assay type: ADME, organism-based; details: in vivo, read-out: Vdss
[9] = molecular target: Poly [ADP-ribose] polymerase 2 (Homo sapiens, UniProt Q9UGN5); experiment: Inhibition of PARP2 (unknown origin) incubated for 1 hr by ELISA analysis
[10] = Half life in Sprague-Dawley rat 1 mg/kg, iv measured upto 24 hrs by LC-MS/MS analysis; assay type: ADME, organism-based; details: in vivo
[11] = molecular target: T1, Cyclin-dependent kinase 1 (Homo sapiens, UniProt P06493); experiment: Inhibition of CDK1 (unknown origin) at 1 uM relative to control
Target sequence in this assay (P06493 whole entry, looked up): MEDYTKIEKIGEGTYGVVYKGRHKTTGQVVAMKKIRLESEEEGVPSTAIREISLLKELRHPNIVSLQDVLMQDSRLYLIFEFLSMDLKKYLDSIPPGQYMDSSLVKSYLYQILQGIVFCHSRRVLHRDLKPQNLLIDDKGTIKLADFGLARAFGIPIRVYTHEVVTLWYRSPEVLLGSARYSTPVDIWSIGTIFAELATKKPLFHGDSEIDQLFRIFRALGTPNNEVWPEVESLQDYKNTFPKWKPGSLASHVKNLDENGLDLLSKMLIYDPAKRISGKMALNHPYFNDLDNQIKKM

[12] = test system: MDA-MB-468; experiment: Induction of apoptosis in human MDA-MB-468 cells incubated for 24 hrs by Annexin V/PI staining based flow cytometry analysis; assay type: functional, cell-based; details: dose 5-20 µM
[13] = AUC (0 to infinity) in Sprague-Dawley rat at 1 mg/kg, iv measured upto 24 hrs by LC-MS/MS analysis; assay type: ADME, organism-based; details: in vivo
[14] = test system: MDA-MB-231; experiment: Induction of […] in human MDA-MB-231 cells assessed as increase in gamma-H2AX foci formation at 10 uM incubated for 24 hrs by confocal laser scanning microscopic analysis; assay type: functional, cell-based
[15] = test system: MDA-MB-231; experiment: Antiproliferative activity against human MDA-MB-231 cells assessed as decrease in number of colony formation at 10 uM measured after 24 days by crystal violet staining based analysis; assay type: functional, cell-based; details: time 24.0 day
[16] = molecular target: Cyclin-dependent kinase 2 (Homo sapiens, UniProt P24941); experiment: Inhibition of CDK2 (unknown origin)
[17] = molecular target: MAP kinase-activated protein kinase 2 (Homo sapiens) (UniProt P49137); experiment: Inhibition of MAPK2 (unknown origin) at 1 uM relative to control
[18] = test system: MDA-MB-231; experiment: Induction of cell cycle arrest in human MDA-MB-231 cells assessed as accumulation of cells at S phase at 20 uM measured after 24 hrs by PI staining based cytometry analysis (reference value: 23.01 %); assay type: functional
[19] = Metabolic stability in BALB/c mouse liver microsome assessed as half life in presence of NADPH incubated upto 60 mins by LC-MS/MS analysis; assay type: ADME; details: liver microsomes
[20] = test system: MDA-MB-468; experiment: […] DNA repair in human MDA-MB-468 cells assessed as […] formation at 10 uM incubated for 24 hrs by confocal laser scanning microscopic analysis; assay type: functional, cell-based
[21] = molecular target: T1, Cyclin-dependent kinase 1; experiment: Inhibition of CDK1 (unknown origin)
Target sequence in this assay (P06493 whole entry): as the sequence (P06493 whole entry, looked up) above

[22] = molecular target: T2, Cyclin-dependent kinase 12 (Homo sapiens, UniProt Q9NYV4); experiment: Inhibition of CDK12 (unknown origin) at 1 uM in presence of ATP by kinase-glo plus luminescent assay relative to control
[23] = test system: MDA-MB-468; experiment: Induction of apoptosis in human MDA-MB-468 cells assessed as upregulation of Bax expression incubated for 24 hrs; assay type: functional, cell-based; details: dose 5-20 µM
[24] = molecular target: Dual specificity protein kinase CLK1 (Homo sapiens) (UniProt P49759); experiment: Inhibition of CLK1 (unknown origin) at 1 uM relative to control
[25] = Metabolic stability in BALB/c mouse liver microsome assessed as intrinsic clearance in presence of NADPH incubated upto 60 mins by LC-MS/MS analysis; assay type: ADME; details: liver microsomes, read-out: CLH
[26] = test system: MDA-MB-231; experiment: Antiproliferative activity against human MDA-MB-231 cells assessed as inhibition of cell growth incubated for 24 hrs by MTT assay; assay type: functional, cell-based; details: MDA-MB-231, 24 h
[27] = AUC (0 to t) in Sprague-Dawley rat at 10 mg/kg, po measured upto 24 hrs by LC-MS/MS analysis; assay type: ADME, organism-based; details: in vivo
[28] = test system: MDA-MB-231; experiment: Induction of cell cycle arrest in human MDA-MB-231 cells assessed as accumulation of cells at S phase at 10 uM measured after 24 hrs by PI staining based cytometry analysis (reference value: 23.01 %); assay type: functional
[29] = test system: MDA-MB-436; experiment: Induction of cell cycle arrest in human MDA-MB-436 cells assessed as accumulation of cells at G1 phase at 10 uM measured after 24 hrs by PI staining based cytometry analysis (reference value: 72.04%); assay type: functional
[30] = test system: MDA-MB-468; experiment: Inhibition of cell migration in human MDA-MB-468 cells assessed as wound closure at 10 uM incubated for 24 hrs by wound healing assay; assay type: functional, cell-based
[31] = test system: MDA-MB-231; experiment: […] DNA repair in human MDA-MB-231 cells assessed as […] formation at 10 uM incubated for 24 hrs by confocal laser scanning microscopic analysis; assay type: functional, cell-based
[32] = molecular target: T2, Cyclin-dependent kinase 12; experiment: Binding affinity to CDK12 in human MDA-MB-436 cells assessed as increase in protein thermal stabilization at 10 uM incubated for 6 hrs by CETSA based Western blot analysis; assay type: cell-based
[33] = test system: MDA-MB-468; experiment: Antiproliferative activity against human MDA-MB-468 cells assessed as reduction in EDU-positive cells at 10 uM […]-staining based analysis; assay type: functional, cell-based
[34] = test system: MDA-MB-231; experiment: Induction of cell cycle arrest in human MDA-MB-231 cells assessed as accumulation of cells at S phase at 5 uM measured after 24 hrs by PI staining based cytometry analysis (reference value: 23.01 %); assay type: functional
[35] = Toxicity in BALB/c mouse xenografted with human MDA-MB-231 cells assessed as morphological changes in spleen at 20 to 80 mg/kg, ip administered once daily for 16 days by H and E staining based analysis; assay type: organism-based; details: in vivo, 384 h, dose 20-80 mg/kg, time 16 day
[36] = test system: MDA-MB-468; experiment: Induction of apoptosis in human MDA-MB-468 cells assessed as downregulation of Bcl-2 expression incubated for 24 hrs; assay type: functional, cell-based; details: dose 5-20 µM
[37] = molecular target: T2, Cyclin-dependent kinase 12; experiment: Inhibition of CDK12 in human MDA-MB-436 cells assessed as effect on Pol II CTD at ser5 residue phosphorylation incubated for 24 hrs; assay type: cell-based; details: dose 5-20 µM

T2 sequence (Q9NYV4 whole entry, looked up): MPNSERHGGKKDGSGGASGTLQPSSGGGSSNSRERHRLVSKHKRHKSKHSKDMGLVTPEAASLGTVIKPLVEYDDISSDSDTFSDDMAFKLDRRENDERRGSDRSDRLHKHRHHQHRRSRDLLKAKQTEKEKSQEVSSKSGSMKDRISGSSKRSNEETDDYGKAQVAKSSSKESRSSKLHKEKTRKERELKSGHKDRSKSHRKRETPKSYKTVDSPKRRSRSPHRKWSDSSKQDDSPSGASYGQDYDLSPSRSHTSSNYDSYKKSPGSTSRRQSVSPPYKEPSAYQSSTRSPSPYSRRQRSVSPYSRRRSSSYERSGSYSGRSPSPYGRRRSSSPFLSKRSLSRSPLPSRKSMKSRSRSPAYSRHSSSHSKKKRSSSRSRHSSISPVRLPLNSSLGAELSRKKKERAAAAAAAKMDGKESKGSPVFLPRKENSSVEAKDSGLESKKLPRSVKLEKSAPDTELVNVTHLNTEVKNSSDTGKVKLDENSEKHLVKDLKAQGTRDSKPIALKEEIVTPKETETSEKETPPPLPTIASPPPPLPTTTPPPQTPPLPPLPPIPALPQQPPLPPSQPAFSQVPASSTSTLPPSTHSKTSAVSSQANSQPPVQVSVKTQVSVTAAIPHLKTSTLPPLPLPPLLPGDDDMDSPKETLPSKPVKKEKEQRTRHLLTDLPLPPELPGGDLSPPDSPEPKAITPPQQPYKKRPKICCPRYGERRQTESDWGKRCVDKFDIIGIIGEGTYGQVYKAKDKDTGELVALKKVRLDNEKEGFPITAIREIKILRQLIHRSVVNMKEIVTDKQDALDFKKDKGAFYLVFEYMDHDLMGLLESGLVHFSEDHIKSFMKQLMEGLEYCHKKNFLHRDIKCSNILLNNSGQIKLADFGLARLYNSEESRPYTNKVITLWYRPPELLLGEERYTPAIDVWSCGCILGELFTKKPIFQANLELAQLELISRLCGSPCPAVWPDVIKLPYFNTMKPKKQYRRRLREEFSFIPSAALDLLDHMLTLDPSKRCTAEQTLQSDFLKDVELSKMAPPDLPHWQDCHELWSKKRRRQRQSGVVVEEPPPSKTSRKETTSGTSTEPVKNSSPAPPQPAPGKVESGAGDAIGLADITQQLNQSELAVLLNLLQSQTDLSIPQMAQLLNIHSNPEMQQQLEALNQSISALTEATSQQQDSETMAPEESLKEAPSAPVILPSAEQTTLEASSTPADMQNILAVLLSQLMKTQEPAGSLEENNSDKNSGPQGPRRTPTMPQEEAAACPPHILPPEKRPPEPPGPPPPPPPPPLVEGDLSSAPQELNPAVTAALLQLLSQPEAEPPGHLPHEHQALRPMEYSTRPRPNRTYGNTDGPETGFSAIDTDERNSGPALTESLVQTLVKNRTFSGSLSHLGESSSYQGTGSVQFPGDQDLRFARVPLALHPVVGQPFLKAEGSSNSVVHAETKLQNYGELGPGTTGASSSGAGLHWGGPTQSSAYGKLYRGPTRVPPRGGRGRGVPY
Chain of Dual specificity protein kinase CLK1 (Homo sapiens) (P49759 whole entry, looked up): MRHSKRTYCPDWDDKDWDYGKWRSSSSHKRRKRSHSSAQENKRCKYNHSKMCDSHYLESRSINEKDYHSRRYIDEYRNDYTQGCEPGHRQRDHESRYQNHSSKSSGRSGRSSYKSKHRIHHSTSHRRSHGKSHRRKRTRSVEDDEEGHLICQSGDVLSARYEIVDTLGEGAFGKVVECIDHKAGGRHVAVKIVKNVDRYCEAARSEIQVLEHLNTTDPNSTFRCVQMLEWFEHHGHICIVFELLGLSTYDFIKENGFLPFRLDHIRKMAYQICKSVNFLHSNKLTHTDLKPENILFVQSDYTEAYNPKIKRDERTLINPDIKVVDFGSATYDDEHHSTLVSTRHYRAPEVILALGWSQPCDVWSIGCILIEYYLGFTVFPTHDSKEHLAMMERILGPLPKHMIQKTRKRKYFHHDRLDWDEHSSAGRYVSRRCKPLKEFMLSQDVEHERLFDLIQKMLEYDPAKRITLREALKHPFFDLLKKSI
Chain of Poly [ADP-ribose] polymerase 2 (Q9UGN5 whole entry): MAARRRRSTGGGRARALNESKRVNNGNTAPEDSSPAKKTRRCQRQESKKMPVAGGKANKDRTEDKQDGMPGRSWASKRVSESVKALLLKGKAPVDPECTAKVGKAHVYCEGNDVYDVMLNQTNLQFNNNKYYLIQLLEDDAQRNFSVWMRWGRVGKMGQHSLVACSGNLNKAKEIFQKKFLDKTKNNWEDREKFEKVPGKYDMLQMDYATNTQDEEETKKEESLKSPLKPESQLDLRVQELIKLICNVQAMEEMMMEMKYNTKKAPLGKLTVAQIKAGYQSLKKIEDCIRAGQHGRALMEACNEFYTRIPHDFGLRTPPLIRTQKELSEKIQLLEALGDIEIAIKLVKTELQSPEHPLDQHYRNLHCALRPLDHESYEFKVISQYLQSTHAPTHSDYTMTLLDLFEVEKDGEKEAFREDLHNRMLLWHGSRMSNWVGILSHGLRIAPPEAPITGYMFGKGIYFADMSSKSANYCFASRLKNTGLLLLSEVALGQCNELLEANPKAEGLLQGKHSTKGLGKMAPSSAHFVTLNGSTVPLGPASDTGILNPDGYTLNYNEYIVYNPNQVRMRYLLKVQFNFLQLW
Chain of MAP kinase-activated protein kinase 2 (Homo sapiens) (P49137 whole entry, looked up): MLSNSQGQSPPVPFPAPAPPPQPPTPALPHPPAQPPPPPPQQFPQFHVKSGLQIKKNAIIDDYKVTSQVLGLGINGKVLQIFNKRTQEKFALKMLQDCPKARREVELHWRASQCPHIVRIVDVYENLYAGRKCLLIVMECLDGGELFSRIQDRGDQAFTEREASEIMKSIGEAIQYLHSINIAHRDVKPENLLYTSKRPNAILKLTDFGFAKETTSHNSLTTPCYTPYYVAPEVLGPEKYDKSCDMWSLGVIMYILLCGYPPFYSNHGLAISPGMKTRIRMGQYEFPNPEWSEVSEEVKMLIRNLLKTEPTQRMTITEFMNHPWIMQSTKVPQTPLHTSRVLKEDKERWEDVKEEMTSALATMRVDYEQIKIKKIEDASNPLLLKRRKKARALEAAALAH

NC(=O)c1cccc2[nH]c(NC(=O)c3cccc(C(=O)N4CCC(Nc5ncc(I)cn5)CC4)c3)nc12
Activity [1]: 59.26% | Activity [2]: Non-Toxic | inhibition [3]: Active | Activity [4]: Active | IC50 [5]: 9700 nM | half-life [6]: 3.51 h | AUC(0-t) at 24 h [7]: 1250 ng·h/mL | Vd [8]: 1.39 L/kg | IC50 [9]: 30 nM | half-life [10]: 3 h | inhibition [11]: > 60% | Activity [12]: Dose-Dependent Effect | AUC(0-inf) [13]: 1340 ng·h/mL | Activity [14]: Active | Activity [15]: Active | IC50 [16]: 689 nM | inhibition [17]: > 60% | Activity [18]: 17.32% | half-life [19]: 1.88 h | Activity [20]: Active | IC50 [21]: 517 nM | inhibition [22]: 77.3% | Activity [23]: Dose-Dependent Effect | inhibition [24]: > 60% | CLint scaled [25]: 48.5 mL/min/kg | IC50 [26]: 8500 nM | AUC(0-t) at 24 h [27]: 60.6 ng·h/mL | Activity [28]: 17.93% | Activity [29]: 66.94% | inhibition [30]: Active | Activity [31]: Active | Activity [32]: Active | Activity [33]: Active | Activity [34]: 19.81% | Activity [35]: Non-Toxic | Activity [36]: Dose-Dependent Effect | inhibition [37]: Dose-Dependent Effect

Reference: ChEMBL document CHEMBL5625183, “Discovery of a novel dual-target inhibitor of CDK12 and PARP1 that induces synthetic lethality for treatment of triple-negative breast cancer” (Eur J Med Chem, 2023)
